Data as given in article PMC5802362 (Amino acids, 2016).

System: BChE and AChE
Experiment: not given
Settings: ref Saxena et al. 1997; cited from earlier work

In the case of CCN(CC)C(C)CN1c2ccccc2Sc2ccccc21 (centres unmarked) [ethopropazine], the “Difference in the KI value between BChE and AChE” value is listed as 9000 fold.

System: not given
Experiment: not given
Settings: calculated with VOIDOO; ref Saxena et al. 1997; cited from earlier work

For CCN(CC)C(C)CN1c2ccccc2Sc2ccccc21 (centres unmarked) [ethopropazine], the “van der Waals volume” value is given as 317.6 Å^3.

Molecular target: butyrylcholinesterase (Equus caballus, UniProt P81908)
Sequence (P81908 whole entry): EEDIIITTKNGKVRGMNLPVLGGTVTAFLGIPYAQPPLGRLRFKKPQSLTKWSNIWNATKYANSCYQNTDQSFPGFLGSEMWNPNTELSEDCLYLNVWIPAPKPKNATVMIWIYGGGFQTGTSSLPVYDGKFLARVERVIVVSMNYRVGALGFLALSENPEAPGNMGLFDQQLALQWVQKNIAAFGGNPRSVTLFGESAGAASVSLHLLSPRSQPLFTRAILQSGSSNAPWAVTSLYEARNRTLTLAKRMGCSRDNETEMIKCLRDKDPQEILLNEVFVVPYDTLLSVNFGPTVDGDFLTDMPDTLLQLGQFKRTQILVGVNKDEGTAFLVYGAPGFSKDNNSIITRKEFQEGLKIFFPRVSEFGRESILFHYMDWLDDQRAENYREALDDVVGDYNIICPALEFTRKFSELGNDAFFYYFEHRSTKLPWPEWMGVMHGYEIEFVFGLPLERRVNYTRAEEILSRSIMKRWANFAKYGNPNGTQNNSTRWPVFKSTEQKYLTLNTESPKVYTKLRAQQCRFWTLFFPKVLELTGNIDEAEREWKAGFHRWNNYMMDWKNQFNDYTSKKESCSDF
Experiment: Inhibition constant
Type: biochemical, equine
Settings: BChE, 100 µM butyrylthiocholine, 2 % methanol, 25 °C, pH 7.5

In order of rising Ki:
1. CC(C)C[C@H](NC(=O)OCC1c2ccccc2-c2ccccc21)C(=O)O [Fmoc-Leu-O^−]  115 ± 11 µM
2. NCCCC[C@H](NC(=O)OCC1c2ccccc2-c2ccccc21)C(=O)O [Fmoc-Lys-O^−]  150 ± 10 µM
3. O=C(N[C@@H](Cc1c[nH]c2ccccc12)C(=O)O)OCC1c2ccccc2-c2ccccc21 [Fmoc-Trp-O^−]  193 ± 21 µM
4. CC[C@H](C)[C@H](NC(=O)OCC1c2ccccc2-c2ccccc21)C(=O)O [Fmoc-Ile-O^−]  194 ± 13 µM
5. O=C(N[C@@H](Cc1ccc(O)cc1)C(=O)O)OCC1c2ccccc2-c2ccccc21 [Fmoc-Tyr-O^−]  307 ± 13 µM
6. CC(C)[C@H](NC(=O)OCC1c2ccccc2-c2ccccc21)C(=O)O [Fmoc-Val-O^−]  313 ± 14 µM
7. O=C(N[C@@H](Cc1ccccc1)C(=O)O)OCC1c2ccccc2-c2ccccc21 [Fmoc-Phe-O^−]  330 ± 15 µM
8. CC(C)C[C@H](NC(=O)OCc1ccccc1)C(=O)O [Cbz-Leu-O^−]  1150 ± 130 µM
9. NCCCC[C@H](NC(=O)OCc1ccccc1)C(=O)O [Cbz-Lys-O^−]  1540 ± 502 µM
